Results on 20 molecules are retold here after patent US6215002A, “Pyrrolopyrrolone derivatives as inhibitors of neutrophil elastase” (priority 1996, dated 2001).

For this test, the target named is T1, human neutrophil elastase (Homo sapiens, UniProt P08246).
T1 sequence (P08246 30-267): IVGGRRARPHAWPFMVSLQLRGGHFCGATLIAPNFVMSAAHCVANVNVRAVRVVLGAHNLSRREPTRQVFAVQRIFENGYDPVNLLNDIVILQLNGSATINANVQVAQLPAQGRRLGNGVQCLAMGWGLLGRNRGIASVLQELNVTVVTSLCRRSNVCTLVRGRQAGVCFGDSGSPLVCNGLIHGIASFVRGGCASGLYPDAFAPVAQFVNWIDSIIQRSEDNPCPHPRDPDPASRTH
Nature of the test: In vitro assay of human neutrophil elastase (HNE). The test is classed as biochemical. To be noted: 118 nM purified human neutrophil elastase, pH 8.6, 15 min incubation at 30° C., MeO-succinyl-alanyl-alanyl-prolyl-valyl-p-nitroanilide substrate; read-out: HNE IC50. The method, then: In Vitro Assays of Human Neutrophil Elastase
118 nM purified human neutrophil elastase
Suitable concentrations of compound under test diluted with water from a 10 mM stock solution in dimethylsulphoxide. Values above are final concentrations after the addition of substrate solution (see below).
The mixture above is incubated for fifteen minutes at 30° C. at which time the remaining elastase activity is measured for 10 minutes in a BioTek 340i plate-reader, after the addition of 0.6 mM MeO-succinyl-alanyl-alanyl-prolyl-valyl-p-nitroanilide. The rate of increase in absorbance at 405 nm is proportional to elastase activity. Enzyme activity is plotted against concentration of inhibitor and an IC50 determined using curve fitting software.
1. The compounds were tested in the in vitro elastase test described earlier in the description.

Where a name gives a salt, the structure may show the parent alone.

As to `CCC[C@H]1C(=O)N(S(C)(=O)=O)[C@H]2CCN(C(=O)CCCCCN(CC)CC)[C@H]12` (relative stereo) [Example 76, rel-(3R,3aR,6aS)-4-(6-Diethylamino-hexanoyl)-1-methanesulfonyl-3-propyl-hexahydro-pyrrolo[3,2-b]pyrrol-2-one DL-tartrate], the concentration for half-maximal inhibition (IC50) was determined as 176 nM.

For the molecule `CCC[C@H]1C(=O)N(S(C)(=O)=O)[C@H]2CCN(C(=O)CN3CCCCCC3)[C@H]12` (relative stereo) [Example 104, rel-(3R,3aR,6aS)-4-Azepin-1-yl-acetyl)-1-methanesulfonyl-3-propyl-hexahydro-pyrrolo[3,2-b]pyrrol-2-one hydrochloride], the IC50 was found to be 574 nM.

Regarding `CCC[C@H]1C(=O)N(S(C)(=O)=O)[C@H]2CCN(C(=O)C3CCCN3C)[C@H]12` (relative stereo) [Example 111, rel-(3R,3aR,6aS)-1-Methanesulfonyl-4-(1-methyl-pyrrolidine-2-carbonyl)-3-propyl-hexahydro-pyrrolo[3,2-b]pyrrol-2-one], the IC50 is 580 nM.

Regarding `C=CC[C@H]1C(=O)N(S(=O)(=O)CCc2ccccc2)[C@H]2CCN(C(=O)OCc3ccccc3)[C@H]12` (relative stereo) [Example 43, rel-(3aS,6R,6aR)-6-Allyl-5-oxo-4-(2-phenyl-ethanesulfonyl)-hexahydro-pyrrolo[3,2-b]pyrrole-1-carboxylic acid benzyl ester], the half-inhibitory concentration (IC50) stood at 408 nM.

For `CC(=O)Nc1ccc(S(=O)(=O)N2CC[C@H]3[C@H]2[C@@H](C(C)C)C(=O)N3S(C)(=O)=O)cc1` (relative stereo) [Example 210, rel-N-[4-(6R-Isopropyl-4-methanesufonyl-5-oxo-hexahydro-(3aS,6aR)-pyrrolo[3,2-b]pyrrole-1-sulfonyl)-phenyl]-acetamide], the half-maximal inhibitory concentration (IC50) was 103 nM.

Take `CCC[C@H]1C(=O)N(S(C)(=O)=O)[C@H]2CCN(C(=O)CCCCCN3CCC3)[C@H]12` (relative stereo) [Example 78, rel-(3R,3aR,6aS)-4-(6-Azetidin-1-yl-hexanoyl)-1-methanesulfonyl-3-propyl-hexahydro-pyrrolo[3,2-b]pyrrol-2-one DL-tartrate]: the half-inhibitory concentration (IC50) amounted to 87 nM.

Regarding `CCC[C@H]1C(=O)N(S(C)(=O)=O)[C@H]2CCN(C(=O)CN(C)c3ccccc3)[C@H]12` (relative stereo) [Example 103, rel-(3R,3aR,6aS)-1-Methanesulfonyl-4-[(methyl-phenyl-amino)-acetyl]-3-propyl-hexahydro-pyrrolo[3,2-b]pyrrol-2-one hydrochloride], the IC50 was 104 nM.

`CCC[C@H]1C(=O)N(S(C)(=O)=O)[C@H]2CCN(C(=O)CCN3CCCCCC3)[C@H]12` (relative stereo) [Example 99, hydrochloride]: the IC50 worked out at 79 nM.

Regarding `CCC[C@H]1C(=O)N(S(C)(=O)=O)[C@H]2CCN(C(=O)CN(CC)CC)[C@H]12` (relative stereo) [Example 101, rel-(3R,3aR,6aS)-4-Diethylaminoacetyl-1-methanesulfonyl-3-propyl-hexahydro-pyrrolo[3,2-b]pyrrol-2-one hydrochloride], the IC50 amounted to 169 nM.

As for `C=CC[C@@H]1C(=O)N(S(=O)(=O)c2ccc3ccccc3c2)[C@@H]2CCN(C(=O)OCc3ccccc3)[C@@H]12` [Example 53, (3aR,6S,6aS)-6-Allyl-4-(naphthalene-2-sulfonyl)-5-oxo-hexahydro-pyrrolo[3,2-n]pyrrole-1-carboxylic acid benzyl ester], the 50% inhibitory concentration (IC50) amounted to 143 nM.

For the molecule `CCC[C@H]1C(=O)N(S(C)(=O)=O)[C@H]2CCN(C(=O)CNC)[C@H]12` (relative stereo) [Example 110, rel-(3R,3aR,6aS)-1-Methanesulfonyl-4-methylaminoacetyl-3-propyl-hexahydro-pyrrolo[3,2-b]pyrrol-2-one trifluoroacetate], the concentration for half-maximal inhibition (IC50) came to 136 nM.

Consider `CCC[C@H]1C(=O)N(S(C)(=O)=O)[C@H]2CCN(S(=O)(=O)c3ccc(S(C)(=O)=O)cc3)[C@H]12` (relative stereo) [Example 217, rel-(3R,3aR,6aS)-1-Methanesulfonyl-4-(4-methanesulfonyl-benzenesulfonyl)-3-propyl-hexahydro-pyrrolo[3,2-b]pyrrol-2-one], for which the IC50 turned out to be 40 nM.

With `CCC[C@H]1C(=O)N(S(C)(=O)=O)[C@H]2CCN(S(=O)(=O)Cc3cccc(-c4nnn[nH]4)c3)[C@H]12` (relative stereo) [Example 27, rel-(3R,3aR,6aS)-1-Methanesulfonyl-3-propyl-4-[3-(1H-tetrazol-5-yl)-phenylmethanesulfonyl]-hexahydro-pyrrolo[3,2-b]pyrrol-2-one], the half-maximal inhibitory concentration (IC50) was 55 nM.

As to `CCC[C@H]1C(=O)N(S(C)(=O)=O)[C@H]2CCN(C(=O)c3ccc(NC(C)=O)nc3)[C@H]12` (relative stereo) [Example 241, rel-N-[5-(4-Methanesulfonyl-5-oxo-6R-propyl-hexahydro(3aS,6aR)-pyrrolo[3,2-b]pyrrole-1-carbonyl)-pyridin-2-yl]-acetamide], the concentration for half-maximal inhibition (IC50) is 22 nM.

Take `CCC[C@H]1C(=O)N(S(=O)(=O)c2ccc3ccccc3c2)[C@H]2CCN(S(=O)(=O)CCCN3CCOCC3)[C@H]12` (relative stereo) [Example 12, rel-(3R,3aR,6aS)-4-(3-Morpholin-4-yl-propane-1-sulfonyl)-1-(naphthalene-2-sulfonyl)-3-propyl-hexahydro-pyrrolo[3,2-b]pyrrol-2-one]: the IC50 was found to be 60 nM.

For the molecule `CCC[C@H]1C(=O)N(S(=O)(=O)c2ccc(N)cc2)[C@H]2CCN(C(=O)CCCCCN3CCCCC3)[C@H]12` (relative stereo) [Example 209, rel-(3R,3aR,6aS)-1-(4-Amino-benzenesulfonyl)-4-(6-piperidin-1-yl-hexanoyl)-3-propyl-hexahydro-pyrrolo[3,2-b]pyrrol-2-one DL-tartrate], the IC50 amounted to 71 nM.

`CCC[C@H]1C(=O)N(S(C)(=O)=O)[C@H]2CCN(C(=O)c3ccc(C(F)(F)F)cc3)[C@H]12` (relative stereo) [Example 244, rel-(3R,3aR,6aS)-1-Methanesulfonyl-3-propyl-(4-trifluoromethyl-benzoyl)-hexahydro-pyrrolo[3,2-b]pyrrol-2-one]: the half-maximal inhibitory concentration (IC50) turned out to be 11 nM.

`CCC[C@H]1C(=O)N(S(C)(=O)=O)[C@H]2CCN(S(=O)(=O)c3ccc(Cl)cc3)[C@H]12` (relative stereo) [Example 215, rel-(3R,3aR,6aS)-4-(4-Chloro-benzenesulfonyl)-1-methanesulfonyl-3-propyl-hexahydro-pyrrolo[3,2-b]pyrrol-2-one]: the concentration for half-maximal inhibition (IC50) amounted to 28 nM.

For `CCC[C@H]1C(=O)N(S(C)(=O)=O)[C@H]2CCN(C(=O)CCCCCN3CCCCC3)[C@H]12` (relative stereo) [Example 74, rel-(3R,3aR,6aS)-1-Methanesulfonyl-4-(6-piperidin-1-yl-hexanoyl)-3-propyl-hexahydro-pyrrolo[3,2-b]pyrrol-2-one hydrochloride], the half-maximal inhibitory concentration (IC50) amounted to 55 nM.

Take `CCC[C@H]1C(=O)N(S(=O)(=O)c2ccc(Cl)cc2)[C@H]2CCN(C(=O)CCCCCN3CCCCC3)[C@H]12` (relative stereo) [Example 207, rel-(3R,3aR,6aS)-1-(4-Chloro-benzenesulfonyl)-4-(6-piperidin-1-yl-hexanoyl)-3-propyl-hexahydro-pyrrolo[3,2-b]pyrrol-2-one DL-tartrate]: the half-maximal inhibitory concentration (IC50) was 38 nM.
